Tests used:
Type in all cases: in vivo
[1] = Comparison of sweetness and mouthfeel enhancement and off-flavor masking with analogs; conditions: 5 ppm, compared with mesaconic acid, glutaconic acid, trans-β-Hydromuconic acid, e-oct-4ene-1, 8-dioic acid
[2] = Descriptive sensory evaluation in sweetened milk (2% fat milk with 2% sucrose); conditions: 2 ppm of each acid in sweetened milk (2% fat milk with 2% sucrose), vs base
Procedure: Sweetened milk (2% fat milk with 2% sucrose) was prepared and used as a base solution (“base”).

[3] = Descriptive sensory evaluation of traumatic acid in different applications
Procedure: Descriptive sensory evaluations were carried out using different amounts of traumatic acid in different applications.

[4] = Descriptive sensory evaluation in sugar water (4% sucrose in drinking water); conditions: 5 ppm in sugar water (4% sucrose in drinking water), vs base solution
Procedure: Sugar water (4% sucrose in drinking water) was prepared and used as a base solution. Different amounts of traumatic acid were added to the base solution and descriptive sensory evaluations were performed (Table 1).
Sugar water (4% sucrose in drinking water) was prepared and used as a base solution. Traumatic acid and 3-dodecenedioic acid were added to the base solution and descriptive sensory evaluations were performed (Table 2).

SMILES | sweetness and mouthfeel enhancement as well as off-flavor masking [1] | Taste Evaluation [2] | Taste Evaluation ([3]; 40 ppm in 3% Sugar + 0.05% Citric Acid Water Solution) | Taste Evaluation ([3]; 40 ppm in Water, vs same application without traumatic acid) | Taste Evaluation [4]
O=C(O)/C=C/CCCCCCCCC(=O)O [Traumatic acid, traumatic acid] | exhibited the strongest and the longest-lasting effect | increased sweetness and mouthfeel of sweetened milk | Fatty and oily | Fatty and oily | enhanced the sweetness and mouthfeel of sugar water
O=C(O)CCCCCCCCC(=O)O [Sebacic Acid, sebacic acid] |  | increased sweetness and mouthfeel of sweetened milk |  |  | 
O=C(O)CC=CCCCCCCCC(=O)O [3-Dodecenedioic acid, 3-dodecenedioic acid] |  |  |  |  | enhanced the sweetness and mouthfeel of sugar water
